Experimental data as given in PMC10999543, “Identification of kinase modulators as host-directed therapeutics against intracellular methicillin-resistant Staphylococcus aureus” (Frontiers in Cellular and Infection Microbiology, 2024).

How the values were obtained:
HeLa cells [1] = experiment: Compound screen by flow cytometry: HeLa cell count as surrogate readout of cell viability (z-scoreHeLa); assay type: cell-based, human; settings: for z-scoreHeLa mean: mean of 3 replicates; for z-scoreHeLa rep 1 / cell count rep 1: replicate 1; for z-scoreHeLa rep 2 / cell count rep 2: replicate 2; for z-scoreHeLa rep 3 / cell count rep 3: replicate 3
How it was run: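 The viability surrogate was the count of fixed HeLa cells by flow cytometry, converted to z-scores against DMSO controls with values deviating two-fold excluded. Before counting, cells had been infected with MRSA for 1 h and cleared of extracellular bacteria with gentamicin. They were then exposed overnight to kinase inhibitors in triplicate.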

[2] = system: intracellular MRSA in HeLa cells; experiment: Gentamicin protection assay with CFU count in MRSA-infected HeLa cells; assay type: cell-based, Staphylococcus aureus; settings: for reduction of intracellular bacterial burden (CFU): validation of 17 hit compounds, Figure 2A; for reduction in bacterial burden (CFU): Figure 2B, n=17
Protocol: (§1) The cells were resuspended in cell culture medium without antibiotics, seeded with 10,000 cells/well into Costar flat-bottom 96-well plates (Corning, Amsterdam, the Netherlands), and were incubated overnight at 37°C/5% CO2. The next day, the bacteria were centrifuged at ≥1800 g for 15 min and resuspended in cold PBS + 5 mM ethylenediaminetetraacetic acid (EDTA). The number of CFUs present in the bacterial suspension was estimated from the optical density at 600 nm (OD600) by assuming 8x10^8 CFUs to be present in a bacterial suspension with OD600 = 1, based on prior titrations. The bacterial suspension was diluted in cell culture medium without antibiotics and added to the cells. Accuracy of the multiplicity of infection (MOI) was validated by plating serial dilutions of the MRSA inoculums on Difco TS agar plates (BD Biosciences). The calculated mean MOI throughout all experiments was 6.8 ± 4.6 (mean ± SD). Infected cells were centrifuged for 3 min at 150 g and incubated for 1 hour at 37°C/5% CO2. Next, the cells were incubated with fresh cell culture medium supplemented with 30 µg/ml gentamicin sulphate (Lonza BioWhittaker, Basel, Switzerland) for 15 min at 37°C/5% CO2 to kill residual extracellular bacteria. Infected cells were incubated overnight at 37°C/5% CO2 in cell culture medium in the presence of kinase inhibitors and 5 µg/ml gentamicin sulphate-containing medium to prevent the growth of extracellular bacteria. The solvent of the compounds, DMSO, was used at equal % v/v as a negative control. For the screen, each compound was tested in triplicate, on separate cell culture plates, resulting in triplicate values for each kinase inhibitor.
(§2) Infected cells were lysed in sterile water + 0.05% UltraPure SDS solution (Invitrogen, ThermoFisher Scientific) to release intracellular bacteria. Bacterial suspensions and lysates of cells infected with MRSA were 5-fold serially diluted and 10-μl drops were plated on square TS agar plates. The plates were left to dry and incubated overnight at 37°C/5% CO2.

[3] = system: intracellular MRSA in MelJuSo cells; experiment: Gentamicin protection assay with CFU count in MRSA-infected MelJuSo cells; assay type: cell-based, Staphylococcus aureus; settings: 10 µM, n=7
Protocol: as §1, §2

[4] = system: intracellular MRSA in MCF7 cells; experiment: Gentamicin protection assay with CFU count in MRSA-infected MCF7 cells; assay type: cell-based, Staphylococcus aureus; settings: 10 µM, n=7
Protocol: as §1, §2

HeLa cells [5] = assay type: cell-based, human; settings: for cytotoxicity / cell viability by LDH-release: 30 µM
Protocol: Before harvesting or lysing the cells of the intracellular infection assays, the supernatant from the cells was collected to quantify LDH release by the cells using the LDH cytotoxicity detection kit (Roche, Merck, Darmstadt, Germany) according to the manufacturer’s instructions. Triton X-100 results in maximum LDH release by permeabilizing the cells and was used as positive control. Quantification was performed with the EnVision plate reader.

[6] = system: HeLa, MelJuSo, A549, MCF7 and PMA-differentiated THP-1 cells; experiment: Light microscopy of cell morphology (cytopathogenic effects); assay type: cell-based, human; settings: for changes in cell morphology / cytopathogenic effects by light microscopy: 10 µM, HeLa, MelJuSo, A549, MCF7, THP-1 cells
zebrafish embryos = experiment: Zebrafish embryo toxicity test; assay type: in vivo; settings: for further signs of toxicity in zebrafish embryos: serial dilutions; for concentration well tolerated in zebrafish embryos: wild type AB/TL
Protocol: All experiments with zebrafish were done on embryos or larvae up to 5 days post fertilization, which have not yet reached the free-feeding stage and which were of the wild type AB/TL line. Fertilized embryos were maintained at 28°C and kept in egg water containing 60 μg/ml Instant Ocean Sea Salt (Sera, Heinsberg Germany). Zebrafish embryos were dechorionated with Dumont #5 forceps (Fine Science Tools Inc., Foster City, CA, USA) at 24 hours post fertilization (hpf) and transferred to 96-wells plates with each well containing a single embryo. Subsequently, the embryos were treated with kinase inhibitors or DMSO at 30 hpf. The health status of the embryos was assessed at 120 hpf. Healthy embryos were given a health score of 5. Health points were withdrawn for each of the following symptoms: no responsiveness to physical stimulation, cranial malformations, oedema or tail malformations. Dead embryos were given a health score of 0.

MRSA = assay type: in vivo, zebrafish; settings: for survival rate of MRSA-infected zebrafish embryos: 10 µM, after 4 days, 1000 CFUs MRSA, DMSO 57.5%, uninfected 93.8%
Protocol: Zebrafish embryos were dechorionated at 24 hpf. The OD600 of a log-phase MRSA culture was centrifuged and dissolved in PBS with 2% polyvinylpyrrolidone (Merck) to improve homogeneity of the bacterial suspension. The OD600 was measured and the bacterial suspension was diluted to a final concentration of 10^9 CFUs/ml accordingly. The preparation of injection needles and the equipment used for microinjections have been previously described ([Benard et al., 2012]). At 28 hpf, zebrafish embryos were anesthetized in 200 µg/ml buffered ethyl 3-aminobenzoic acid (Tricaine, Sigma-Aldrich) and injected in the blood island with a bacterial dose of 1 nl containing 1000 CFUs of MRSA. Infected embryos were collected and randomly distributed over 6-wells plates with ten embryos/well. At 30 hpf, the infected embryos were given kinase inhibitors or DMSO as negative control. Survival of the embryos was scored at 48, 72, 96 and 120 hpf.

[7] = PKIS compound screen, Yes/No call
[8] = PKIS compounds raw data, HeLa cell count
[9] = compound screen, HeLa cell count
[10] = PKIS compound screen raw data, HeLa cell count
[11] = PKIS compound screen, HeLa cell count

Row | SMILES | cell death (HeLa cells [1]; [7]) | z-scoreHeLa mean (HeLa cells [1]; PKIS compound screen) | z-scoreHeLa rep 1 (HeLa cells [1]; PKIS compound screen) | z-scoreHeLa rep 2 (HeLa cells [1]; PKIS compound screen) | z-scoreHeLa rep 3 (HeLa cells [1]; PKIS compound screen) | cell count rep 1 (HeLa cells [1]; [8]) | cell count rep 2 (HeLa cells [1]; [8]) | cell count rep 3 (HeLa cells [1]; [8]) | reduction of intracellular bacterial burden (CFU) ([2]; 10 µM) | reduction in bacterial burden (CFU) ([2]; HeLa cells, 10 µM) | lowest concentration acting against intracellular MRSA (titration) ([2]; MRSA-infected HeLa cells) | reduction in bacterial burden (CFU) [3] | reduction in bacterial burden (CFU) [4] | cytotoxicity / cell viability by LDH-release (HeLa cells [5]; MRSA-infected HeLa cells) | changes in cell morphology / cytopathogenic effects by light microscopy [6] | further signs of toxicity in zebrafish embryos (zebrafish embryos; 120 hpf) | concentration well tolerated in zebrafish embryos (zebrafish embryos; zebrafish, in vivo) | survival rate of MRSA-infected zebrafish embryos (MRSA) | further results
1 | O=S(=O)(CCNCc1ccc(-c2ccc3ncnc(Nc4ccc(OCc5cccc(F)c5)c(Cl)c4)c3c2)o1)c1ccccc1 [GW633459A] | No | 0.80 | 0.28 | 0.72 | 1.40 | 5085 | 5223 | 9893 | 59% | 50% | 10 nM | 81% | reductions in CFU counts | only marginally affected | not observed | no further signs of toxicity were observed | ≤ 10 µM | 67.5% | CFU (% of DMSO) at 10 µM ([2]; 10 µM, MRSA-infected HeLa cells): 41.2 % of DMSO
2 | COc1ccc2[nH]c3c4[nH]c5ccc(OC)cc5c4c4c(c3c2c1)C(=O)NC4=O [GW296115X] |  |  |  |  |  | 4446 | 4236 | 6955 | 67% | 70% |  | 88% | 75% | limited cytotoxicity | slight changes in cell morphology | no further signs of toxicity were observed | ≤ 10 µM | 77.5% | cell death (HeLa cells [1]; Yes/No call from z-scoreHeLa): No; z-scoreHeLa mean (HeLa cells [1]; [9]): -0.11; z-scoreHeLa rep 1 (HeLa cells [1]; [9]): -0.30; z-scoreHeLa rep 2 (HeLa cells [1]; [9]): -0.0242; z-scoreHeLa rep 3 (HeLa cells [1]; [9]): -0.00316; bacterial killing when bafilomycin A1 is added ([2]; HeLa cells, combined with bafilomycin A1 (100 nM), Figure 5H): reverted; reduction of the intracellular bacterial burden, maximal ([2]; MRSA-infected HeLa cells, titration): up to 80%; Emax ([2]; Staphylococcus aureus, MRSA, HeLa): -80%; IC50 ([2]; Staphylococcus aureus, MRSA, HeLa, read-out: IC50 for reduction of intracellular bacterial burden): 159 nM; cell viability of MRSA-infected cells (HeLa cells [5]; HeLa cells, Figure 5K): able to fully restore the loss in cell viability; cell viability of MRSA-infected cells (LDH-release) (HeLa cells [5]; MRSA-infected HeLa cells, 10 µM, Figure 2G): rescued the loss of viability; host cell viability when bafilomycin A1 is added (HeLa cells [5]; MRSA-infected HeLa cells, combined with bafilomycin A1 (100 nM), Figure 5I): reverted
3 | CC(C)c1nc(-c2cccc(NS(=O)(=O)c3c(F)cccc3F)c2F)c(-c2ccnc(Nc3ccc(N4CCOCC4)nc3)n2)s1 [GSK2008607A] | No | -1.34 | -1.52 | -1.39 | -1.10 | 3519 | 3908 | 3860 | 56% | 72% | 10 nM | 81% | reductions in CFU counts | became cytotoxic | cytopathogenic effects were observed |  |  |  | cell count rep 1 (HeLa cells [1]; [10]): 21178; cell count rep 2 (HeLa cells [1]; [10]): 14585; cell count rep 3 (HeLa cells [1]; [10]): 12213; z-scoreHeLa mean (HeLa cells [1]; [11]): -1.56; z-scoreHeLa rep 1 (HeLa cells [1]; [11]): -1.53; z-scoreHeLa rep 2 (HeLa cells [1]; [11]): -1.83; z-scoreHeLa rep 3 (HeLa cells [1]; [11]): -1.31; cell death (HeLa cells [1]; PKIS compound screen, Yes/No call on z-scoreHeLa): No; cytopathogenic effects in HeLa cells ([6]; 1 µM): cytopathogenic effects were already observed; embryos that died, of 15 (zebrafish embryos; 1 µM, 120 hpf): one; symptoms of surviving zebrafish embryos (zebrafish embryos; 3 and 10 µM, 120 hpf): oedema of the heart sac and yolk, as well as unresponsiveness to physical stimulation; zebrafish embryo mortality (zebrafish embryos; 3 and 10 µM, treated 30 hpf, scored 120 hpf): caused zebrafish embryo mortality; concentrations exhibiting toxicity in zebrafish embryos (zebrafish embryos; zebrafish, in vivo): ≥ 1 µM; embryos that did not respond to physical stimulation, of 15 (zebrafish embryos; zebrafish, in vivo): another; embryos with cranial malformations, of 15 (zebrafish embryos; zebrafish, in vivo): two; embryos with oedema, of 15 (zebrafish embryos; zebrafish, in vivo): three; toxicity in MRSA-infected zebrafish embryos (MRSA; 1 µM): severe compound-related toxicity
